# Experimental data from patent publication US11597724B2, “Herbicidally active 3-phenylisoxazoline-5-carboxamides of tetrahydro and dihydrofuran carboxylic acids and esters” (Bayer Aktiengesellschaft, priority 2017, dated 2023).
# Experiments:
# Format in all cases: in vivo
# [1] = system: Avena fatua; test: Post-emergence herbicidal activity against AVEFA; settings: dosage 320 g/ha, rated about 3 weeks after treatment
# Description: (§1) AMARE: Amaranthus retroflexus AVEFA: Avena fatua 2. Post-Emergence Herbicidal Action and Crop Plant Compatibility Seeds of monocotyledonous and dicotyledonous weeds and crop plants are placed in sandy loam in plastic or wood-fiber pots, covered with soil and cultivated in a greenhouse under controlled growth conditions. 2 to 3 weeks after sowing, the test plants are treated at the one-leaf stage. The compounds of the invention, formulated in the form of wettable powders (WP) or as emulsion concentrates (EC), are then sprayed onto the green parts of the plants as aqueous suspension or emulsion with addition of 0.5% additive at a water application rate of 600 l/ha (converted). After the test plants had been kept in the greenhouse under optimum growth conditions for about 3 weeks, the activity of the preparations is rated visually in comparison to untreated controls. For example, 100% activity=the plants have died, 0% activity=like control plants.
# [2] = system: Lolium rigidum; test: Post-emergence herbicidal activity against LOLRI; settings: dosage 320 g/ha, rated about 3 weeks after treatment
# Description: as §1, with “LOLRI: Lolium rigidum PHBPU: Pharbitis purpurea” for “AMARE: Amaranthus retroflexus AVEFA: Avena fatua”
# [3] = system: Hordeum murinum; test: Post-emergence herbicidal activity against HORMU; settings: dosage 320 g/ha
# Description: as §1, with “ECHCG: Echinochloa crus-galli HORMU: Hordeum murinum” for “AMARE: Amaranthus retroflexus AVEFA: Avena fatua”
# [4] = system: Stellaria media; test: Post-emergence herbicidal activity against STEME; settings: dosage 320 g/ha, rated about 3 weeks after treatment
# Description: as §1, with “STEME: Stellaria media VERPE: Veronica persica” for “AMARE: Amaranthus retroflexus AVEFA: Avena fatua”
# [5] = system: Viola tricolor; test: Post-emergence herbicidal activity against VIOTR; settings: dosage 320 g/ha, rated about 3 weeks after treatment
# Description: as §1, with “VIOTR: Viola tricolor” for “AMARE: Amaranthus retroflexus AVEFA: Avena fatua”
# [6] = system: Abutilon theophrasti; test: Post-emergence herbicidal activity against ABUTH; settings: dosage 320 g/ha, rated about 3 weeks after treatment
# Description: as §1, with “ABUTH: Abutilon theophrasti ALOMY: Alopecurus myosuroides” for “AMARE: Amaranthus retroflexus AVEFA: Avena fatua”
# [7] = system: Polygonum convolvulus; test: Post-emergence herbicidal activity against POLCO; settings: dosage 320 g/ha, rated about 3 weeks after treatment
# Description: as §1, with “POLCO: Polygonum convolvulus SETVI: Setaria viridis” for “AMARE: Amaranthus retroflexus AVEFA: Avena fatua”
# [8] = system: Pharbitis purpurea; test: Post-emergence herbicidal activity against PHBPU; settings: dosage 320 g/ha, rated about 3 weeks after treatment
# Description: as §1, with “LOLRI: Lolium rigidum PHBPU: Pharbitis purpurea” for “AMARE: Amaranthus retroflexus AVEFA: Avena fatua”
# [9] = system: Setaria viridis; test: Post-emergence herbicidal activity against SETVI; settings: dosage 320 g/ha, rated about 3 weeks after treatment
# Description: as §1, with “POLCO: Polygonum convolvulus SETVI: Setaria viridis” for “AMARE: Amaranthus retroflexus AVEFA: Avena fatua”
# [10] = system: Echinochloa crus-galli; test: Post-emergence herbicidal activity against ECHCG; settings: dosage 320 g/ha, rated about 3 weeks after treatment
# Description: as §1, with “ECHCG: Echinochloa crus-galli HORMU: Hordeum murinum” for “AMARE: Amaranthus retroflexus AVEFA: Avena fatua”
# [11] = system: Veronica persica; test: Post-emergence herbicidal activity against VERPE; settings: dosage 320 g/ha
# Description: as §1, with “STEME: Stellaria media VERPE: Veronica persica” for “AMARE: Amaranthus retroflexus AVEFA: Avena fatua”
# [12] = system: Alopecurus myosuroides; test: Post-emergence herbicidal activity against ALOMY; settings: dosage 320 g/ha, rated about 3 weeks after treatment
# Description: as §1, with “ABUTH: Abutilon theophrasti ALOMY: Alopecurus myosuroides” for “AMARE: Amaranthus retroflexus AVEFA: Avena fatua”
# [13] = system: Amaranthus retroflexus; test: Post-emergence herbicidal activity against AMARE; settings: dosage 320 g/ha, rated about 3 weeks after treatment
# Description: as §1
smiles,measurement,setting,value
C=CC1(C(=O)NC2COC(C(=O)OCc3ccc(OC)cc3)C2)CC(c2cc(F)cc(F)c2)=NO1 (mixture of isomers) [I-54],Post-emergence herbicidal activity against AVEFA in %,[1],90%
same,Post-emergence herbicidal activity against LOLRI in %,[2],90%
same,Post-emergence herbicidal activity against HORMU in %,[3],90%
same,Post-emergence herbicidal activity against STEME in %,[4],90%
same,Post-emergence herbicidal activity against VIOTR in %,[5],90%
same,Post-emergence herbicidal activity against ABUTH in %,[6],90%
same,Post-emergence herbicidal activity against POLCO in %,[7],90%
same,Post-emergence herbicidal activity against PHBPU in %,[8],90%
same,Post-emergence herbicidal activity against SETVI in %,[9],90%
same,Post-emergence herbicidal activity against ECHCG in %,[10],90%
same,Post-emergence herbicidal activity against VERPE in %,[11],90%
same,Post-emergence herbicidal activity against ALOMY in %,[12],90%
same,Post-emergence herbicidal activity against AMARE in %,[13],80%
CC(F)(F)C1(C(=O)NC2COC(C(=O)O)C2)CC(c2cc(F)cc(F)c2)=NO1 (centres unmarked) [I-50],Post-emergence herbicidal activity against AVEFA in %,[1],100%
same,Post-emergence herbicidal activity against LOLRI in %,[2],90%
same,Post-emergence herbicidal activity against HORMU in %,[3],100%
same,Post-emergence herbicidal activity against STEME in %,[4],90%
same,Post-emergence herbicidal activity against VIOTR in %,[5],90%
same,Post-emergence herbicidal activity against ABUTH in %,[6],90%
same,Post-emergence herbicidal activity against POLCO in %,[7],90%
same,Post-emergence herbicidal activity against PHBPU in %,[8],90%
same,Post-emergence herbicidal activity against SETVI in %,[9],90%
same,Post-emergence herbicidal activity against ECHCG in %,[10],90%
same,Post-emergence herbicidal activity against VERPE in %,[11],90%
same,Post-emergence herbicidal activity against ALOMY in %,[12],90%
same,Post-emergence herbicidal activity against AMARE in %,[13],80%
C=CC1(C(=O)NC2COC(C(=O)OCc3cccc(F)c3)C2)CC(c2cc(F)cc(F)c2)=NO1 (mixture of isomers) [I-52],Post-emergence herbicidal activity against AVEFA in %,[1],90%
same,Post-emergence herbicidal activity against LOLRI in %,[2],90%
same,Post-emergence herbicidal activity against HORMU in %,[3],90%
same,Post-emergence herbicidal activity against STEME in %,[4],90%
same,Post-emergence herbicidal activity against VIOTR in %,[5],90%
same,Post-emergence herbicidal activity against ABUTH in %,[6],90%
same,Post-emergence herbicidal activity against POLCO in %,[7],90%
same,Post-emergence herbicidal activity against PHBPU in %,[8],90%
same,Post-emergence herbicidal activity against SETVI in %,[9],90%
same,Post-emergence herbicidal activity against ECHCG in %,[10],90%
same,Post-emergence herbicidal activity against VERPE in %,[11],90%
same,Post-emergence herbicidal activity against ALOMY in %,[12],90%
same,Post-emergence herbicidal activity against AMARE in %,[13],90%
CC(C)OC(=O)C1CC(NC(=O)C2(C(C)(F)F)CC(c3cc(F)cc(F)c3)=NO2)CO1 (centres unmarked) [I-51],Post-emergence herbicidal activity against AVEFA in %,[1],100%
same,Post-emergence herbicidal activity against LOLRI in %,[2],90%
same,Post-emergence herbicidal activity against HORMU in %,[3],90%
same,Post-emergence herbicidal activity against STEME in %,[4],90%
same,Post-emergence herbicidal activity against VIOTR in %,[5],90%
same,Post-emergence herbicidal activity against ABUTH in %,[6],80%
same,Post-emergence herbicidal activity against POLCO in %,[7],90%
same,Post-emergence herbicidal activity against PHBPU in %,[8],90%
same,Post-emergence herbicidal activity against SETVI in %,[9],90%
same,Post-emergence herbicidal activity against ECHCG in %,[10],90%
same,Post-emergence herbicidal activity against VERPE in %,[11],90%
same,Post-emergence herbicidal activity against ALOMY in %,[12],100%
same,Post-emergence herbicidal activity against AMARE in %,[13],80%
CC1(C(=O)NC2COC(C(=O)OCc3cccc(F)c3)C2)CC(c2cc(F)cc(F)c2)=NO1 (mixture of isomers) [I-53],Post-emergence herbicidal activity against AVEFA in %,[1],90%
same,Post-emergence herbicidal activity against LOLRI in %,[2],90%
same,Post-emergence herbicidal activity against HORMU in %,[3],90%
same,Post-emergence herbicidal activity against STEME in %,[4],90%
same,Post-emergence herbicidal activity against VIOTR in %,[5],90%
same,Post-emergence herbicidal activity against ABUTH in %,[6],90%
same,Post-emergence herbicidal activity against POLCO in %,[7],90%
same,Post-emergence herbicidal activity against PHBPU in %,[8],90%
same,Post-emergence herbicidal activity against SETVI in %,[9],90%
same,Post-emergence herbicidal activity against ECHCG in %,[10],90%
same,Post-emergence herbicidal activity against VERPE in %,[11],90%
same,Post-emergence herbicidal activity against ALOMY in %,[12],90%
same,Post-emergence herbicidal activity against AMARE in %,[13],90%
